Test results published in patent publication US9012496B2, “Pharmaceutical compositions of (R)-1-(2,2-difluorobenzo[D][1,3]dioxol-5-yl)-N-(1-(2,3-dihydroxypropyl)-6-fluoro-2-(1-hydroxy-2-methylpropan-2-yl)-1H-indol-5-yl)cyclopropanecarboxamide and administration thereof” (Vertex Pharmaceuticals Incorported, priority 2012, dated 2015).

Target: T1, ΔF508-CFTR (Homo sapiens, UniProt P13569, DEL508-508)
T1 construct: expressed in transfected cells; host or cells: NIH3T3 mouse fibroblasts (optical membrane potential assay, whole-cell and single-channel recordings); Fisher rat epithelial (FRT) cells (Ussing chamber)
T1 sequence (P13569 with tags, fused parts or gaps DEL508-508): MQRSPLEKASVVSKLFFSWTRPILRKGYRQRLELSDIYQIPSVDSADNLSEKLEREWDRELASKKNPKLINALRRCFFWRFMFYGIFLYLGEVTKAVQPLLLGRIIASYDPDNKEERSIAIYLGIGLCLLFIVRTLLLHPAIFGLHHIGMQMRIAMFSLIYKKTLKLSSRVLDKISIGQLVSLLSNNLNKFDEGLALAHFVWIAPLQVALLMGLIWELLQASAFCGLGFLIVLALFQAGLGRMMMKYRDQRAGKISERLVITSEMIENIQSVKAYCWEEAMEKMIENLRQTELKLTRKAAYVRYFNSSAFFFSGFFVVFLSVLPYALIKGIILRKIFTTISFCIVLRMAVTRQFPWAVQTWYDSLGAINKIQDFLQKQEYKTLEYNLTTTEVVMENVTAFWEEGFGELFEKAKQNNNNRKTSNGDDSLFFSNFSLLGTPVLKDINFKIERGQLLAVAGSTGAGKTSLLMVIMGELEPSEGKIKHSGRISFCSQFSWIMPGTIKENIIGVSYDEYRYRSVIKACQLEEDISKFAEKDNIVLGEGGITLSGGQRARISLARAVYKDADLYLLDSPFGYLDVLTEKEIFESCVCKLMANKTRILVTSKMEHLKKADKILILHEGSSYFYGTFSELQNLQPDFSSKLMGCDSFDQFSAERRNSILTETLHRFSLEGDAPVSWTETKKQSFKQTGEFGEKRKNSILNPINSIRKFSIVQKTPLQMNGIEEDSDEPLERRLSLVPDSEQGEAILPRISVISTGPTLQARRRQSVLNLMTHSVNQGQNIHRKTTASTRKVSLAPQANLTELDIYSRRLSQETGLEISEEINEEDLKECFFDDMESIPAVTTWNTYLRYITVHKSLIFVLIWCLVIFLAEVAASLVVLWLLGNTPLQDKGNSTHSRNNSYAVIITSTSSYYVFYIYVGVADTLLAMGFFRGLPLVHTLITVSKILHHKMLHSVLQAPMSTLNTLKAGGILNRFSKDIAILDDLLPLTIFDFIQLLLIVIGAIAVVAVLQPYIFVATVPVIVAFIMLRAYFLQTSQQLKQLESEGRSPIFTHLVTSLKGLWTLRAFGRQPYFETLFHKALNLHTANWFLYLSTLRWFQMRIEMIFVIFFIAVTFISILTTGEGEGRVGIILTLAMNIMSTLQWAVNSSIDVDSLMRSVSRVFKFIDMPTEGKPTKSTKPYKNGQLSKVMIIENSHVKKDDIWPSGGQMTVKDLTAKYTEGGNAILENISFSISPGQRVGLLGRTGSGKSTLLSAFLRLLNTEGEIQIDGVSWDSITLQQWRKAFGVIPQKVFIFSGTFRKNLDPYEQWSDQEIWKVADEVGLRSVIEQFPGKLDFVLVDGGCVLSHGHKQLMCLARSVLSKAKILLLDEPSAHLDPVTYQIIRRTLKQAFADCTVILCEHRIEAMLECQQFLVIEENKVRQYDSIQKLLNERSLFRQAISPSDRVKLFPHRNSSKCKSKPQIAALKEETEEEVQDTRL
Test: Assays for detecting and measuring ΔF508-CFTR correction properties (membrane potential optical assay; electrophysiological assays)
Type: cell-based
Source text: Assays for Detecting and Measuring ΔF508-CFTR Correction Properties of Compounds
Membrane potential optical methods for assaying ΔF508-CFTR modulation properties of compounds.
The optical membrane potential assay utilized voltage-sensitive FRET sensors described by Gonzalez and Tsien (See Gonzalez, J. E. and R. Y. Tsien (1995) “Voltage sensing by fluorescence resonance energy transfer in single cells” Biophys J 69(4): 1272-80, and Gonzalez, J. E. and R. Y. Tsien (1997) “Improved indicators of cell membrane potential that use fluorescence resonance energy transfer” Chem Biol 4(4): 269-77) in combination with instrumentation for measuring fluorescence changes such as the Voltage/Ion Probe Reader (VIPR) (See, Gonzalez, J. E., K. Oades, et al. (1999) “Cell-based assays and instrumentation for screening ion-channel targets” Drug Discov Today 4(9): 431-439).
These voltage sensitive assays are based on the change in fluorescence resonant energy transfer (FRET) between the membrane-soluble, voltage-sensitive dye, DiSBAC2(3), and a fluorescent phospholipid, CC2-DMPE, which is attached to the outer leaflet of the plasma membrane and acts as a FRET donor. […] The changes in fluorescence emission were monitored using VIPR™ II, which is an integrated liquid handler and fluorescent detector designed to conduct cell-based screens in 96- or 384-well microtiter plates. […]

- EC50 (NIH3T3 mouse fibroblasts stably expressing ΔF508-CFTR, read-out: BinnedEC50): ≤ 2000 nM
- BinnedMaxEfficacy (PercentActivity bins): +++ (100.0 < +++)
SMILES: CC(C)(CO)c1cc2cc(NC(=O)C3(c4ccc5c(c4)OC(F)(F)O5)CC3)c(F)cc2n1C[C@@H](O)CO [Compound 1, (R)-1-(2,2-difluorobenzo[d][1,3]dioxol-5-yl)-N-(1-(2,3-dihydroxypropyl)-6-fluoro-2-(1-hydroxy-2-methylpropan-2-yl)-1H-indol-5-yl)cyclopropanecarboxamide]
